From patent US11498928B2, “Macrocyclic spiroethers as Mcl-1 inhibitors” (ASCENTAGE PHARMA (SUZHOU) CO., LTD., priority 2019, dated 2022)

Experiments:
[1] = target: T1, Mcl-1 protein (residues 171-323) (Homo sapiens, UniProt Q07820); test: Inhibition of Mcl-1 by fluorescence polarization (FP) competitive binding assay with FAM-Bid tracer; settings: 2 nM FAM-Bid, 20 nM Mcl-1, 30 min
T1 construct: Tag-free Mcl-1 protein (residues 171-323) was used in the FP assay
Outline: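 Ten-point compound titrations compete against 2 nM fluorescein-Bid for 20 nM Mcl-1 (171-323, untagged). Incubation 30 min RT in PBS buffer with BGG and Triton, 5% DMSO final. mP reduction fitted by sigmoidal nonlinear regression for IC50.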

OPM-2 cells = test: Cell viability assay (OPM-2 cells), CCK-8; assay type: cell-based; settings: Homo sapiens, OPM-2, 24 h, 5% FBS
Outline: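 Viability read by CCK-8 absorbance (450 nm, 4 h reagent incubation) after 24 h compound exposure of 20000 OPM-2 cells per well at 37 °C. IC50 fitted by nonlinear regression on vehicle-normalized signal.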

NCI-H929 cells = test: Cell viability assay (NCI-H929 cells), CCK-8; assay type: cell-based; settings: Homo sapiens, NCI-H929, 24 h, 5% FBS
Outline: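 Viability of NCI-H929 cells was measured using the Cell Counting Kit-8. After 24 hrs of compound exposure, 10 μL of CCK-8 solution per well was incubated for 1-4 hours, and absorbance was read at 450 nm on a BioTek Synergy 1MF. Readings were normalized to vehicle (DMSO) cells, and IC50 values were derived by nonlinear regression in GraphPad Prism 6.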

T1 sequence (Q07820 171-323): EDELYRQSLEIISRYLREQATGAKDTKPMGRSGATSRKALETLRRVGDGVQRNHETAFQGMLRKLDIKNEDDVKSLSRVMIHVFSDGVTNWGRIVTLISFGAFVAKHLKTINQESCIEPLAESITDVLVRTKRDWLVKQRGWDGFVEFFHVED

SMILES	IC50 [1] [nM]	IC50 (OPM-2 cells) [nM]	IC50 (NCI-H929 cells) [nM]
CO[C@@]1(CN2CCN(C)C(=O)C2)C2=C[C@@H](C2)[C@H](C)[C@@H](C)S(=O)(=O)NC(=O)c2ccc3c(c2)N(C[C@@H]2CC[C@H]21)C[C@@]1(CCCc2c1ccc(Cl)c2F)CO3 [compound 39, (1S,11′R,12′S,13′R,16′R,16a′R,18a′R,E)-6-chloro-5-fluoro-16′-methoxy-11′,12′-dimethyl-16′-((4-methyl-3-oxopiperazin-1-yl)methyl)-3,4,12′,13′,16′,16a′,17′,18′,18a′,19′-decahydro-1′H,2H,3′H, 11′H-spiro[naphthalene-1,2′-[5,7]etheno[13,15]methanocyclobuta[i][1,4]oxazepino[3,4-f][1]thia[2,7]diazacyclohexadecin]-8′(9′H)-one 10′,10′-dioxide]	14	62	7.7
CO[C@@]1(CN2C[C@@H](C)N(C)[C@@H](C)C2)C2=C[C@@H](C2)[C@H](C)[C@@H](C)S(=O)(=O)NC(=O)c2ccc3c(c2)N(C[C@@H]2CC[C@H]21)C[C@@]1(CCCc2c1ccc(Cl)c2F)CO3 [compound 40, (1S,11′R,12′S,13′R,16′R,16a′R,18a′R,E)-6-chloro-5-fluoro-16′-methoxy-11′,12′-dimethyl-16′-(((3S,5R)-3,4,5-trimethylpiperazin-1-yl)methyl)-3,4,12′,13′,16′,16a′,17′,18′,18a′,19′-decahydro-1′H,2H,3′H,11′H-spiro[naphthalene-1,2′-[5,7]etheno[13,15]methanocyclobuta[i][1,4]oxazepino[3,4-f][1]thia[2,7]diazacyclohexadecin]-8′(9′H)-one 10′,10′-dioxide]	17	55	2.6
CO[C@@]1(CN2CCNCC2)C2=C[C@@H](C2)[C@H](C)[C@@H](C)S(=O)(=O)NC(=O)c2ccc3c(c2)N(C[C@@H]2CC[C@H]21)C[C@@]1(CCCc2c1ccc(Cl)c2F)CO3 [compound 41, (1S,11′R,12′S,13′R,16′R,16a′R,18a′R,E)-6-chloro-5-fluoro-16′-methoxy-11′,12′-dimethyl-16′-(piperazin-1-ylmethyl)-3,4,12′,13′,16′,16a′,17′,18′,18a′,19′-decahydro-1′H,2H,3′H, 11′H-spiro[naphthalene-1,2′-[5,7]etheno[13,15]methanocyclobuta[i][1,4]oxazepino[3,4-f][1]thia[2,7]diazacyclohexadecin]-8′(9′H)-one 10′,10′-dioxide]	26	156	190
CO[C@@]1(CN2CCNC(=O)C2)C2=C[C@@H](C2)[C@H](C)[C@@H](C)S(=O)(=O)NC(=O)c2ccc3c(c2)N(C[C@@H]2CC[C@H]21)C[C@@]1(CCCc2c1ccc(Cl)c2F)CO3 [compound 42, (1S,11′R,12′S,13′R,16′R,16a′R,18a′R,E)-6-chloro-5-fluoro-16′-methoxy-11′,12′-dimethyl-16′-((3-oxopiperazin-1-yl)methyl)-3,4,12′,13′,16′,16a′,17′,18′,18a′,19′-decahydro-1′H,2H,3′H, 11′H-spiro[naphthalene-1,2′-[5,7]etheno[13,15]methanocyclobuta[i][1,4]oxazepino[3,4-f][1]thia[2,7]diazacyclohexadecin]-8′(9′H)-one 10′,10′-dioxide]	13	66	51
CO[C@@]1(CN2C[C@@H](C)N[C@@H](C)C2)C2=C[C@@H](C2)[C@H](C)[C@@H](C)S(=O)(=O)NC(=O)c2ccc3c(c2)N(C[C@@H]2CC[C@H]21)C[C@@]1(CCCc2c1ccc(Cl)c2F)CO3 [compound 43, (1S,11′R,12′S,13′R,16′R,16a′R,18a′R,E)-6-chloro-16′-(((3S,5R)-3,5-dimethylpiperazin-1-yl)methyl)-5-fluoro-16′-methoxy-11′,12′-dimethyl-3,4,12′,13′,16′,16a′,17′,18′,18a′,19′-decahydro-1′H,2H,3′H,11′H-spiro[naphthalene-1,2′-[5,7]etheno[13,15]methanocyclobuta[i][1,4]oxazepino[3,4-f][1]thia[2,7]diazacyclohexadecin]-8′(9′H)-one 10′,10′-dioxide]	15	47	35
CCO[C@@]1(CN2CCN3CCOC[C@@H]3C2)C2=C[C@@H](C2)[C@H](C)[C@@H](C)S(=O)(=O)NC(=O)c2ccc3c(c2)N(C[C@@H]2CC[C@H]21)C[C@@]1(CCCc2c1ccc(Cl)c2F)CO3 [compound 44, (1S,11′R,12′S,13′R,16′R,16a′R,18a′R,E)-6-chloro-16′-ethoxy-5-fluoro-16′-(((S)-hexahydropyrazino[2,1-c][1,4]oxazin-8(1H)-yl)methyl)-11′,12′-dimethyl-3,4,12,′13′,16′,16a′,17′,18′,18a′,19′-decahydro-1′H,2H,3′H,11′H-spiro[naphthalene-1,2′-[5,7]etheno[13,15]methanocyclobuta[i][1,4]oxazepino[3,4-f][1]thia[2,7]diazacyclohexadecin]-8′(9′H)-one 10′,10′-dioxide]	11	48	17
CCO[C@@]1(CN2CCN3CCOC[C@H]3C2)C2=C[C@@H](C2)[C@H](C)[C@@H](C)S(=O)(=O)NC(=O)c2ccc3c(c2)N(C[C@@H]2CC[C@H]21)C[C@@]1(CCCc2c1ccc(Cl)c2F)CO3 [compound 45, (1S,11′R,12′S,13′R,16′R,16a′R,18a′R,E)-6-chloro-16′-ethoxy-5-fluoro-16′-(((R)-hexahydropyrazino[2,1-c][1,4]oxazin-8(1H)-yl)methyl)-11′,12′-dimethyl-3,4,12,′13′,16′,16a′,17′,18′,18a′,19′-decahydro-1′H,2H,3′H,11′H-spiro[naphthalene-1,2′-[5,7]etheno[13,15]methanocyclobuta[i][1,4]oxazepino[3,4-f][1]thia[2,7]diazacyclohexadecin]-8′(9′H)-one 10′,10′-dioxide]	15	105	46
CCO[C@@]1(C(=O)N2CCN3CCOC[C@@H]3C2)C2=C[C@@H](C2)[C@H](C)[C@@H](C)S(=O)(=O)NC(=O)c2ccc3c(c2)N(C[C@@H]2CC[C@H]21)C[C@@]1(CCCc2c1ccc(Cl)c2F)CO3 [compound 46, (1S,11′R,12′S,13′R,16′R,16a′R,18a′R,E)-6-chloro-16′-ethoxy-5-fluoro-11′,12′-dimethyl-16′-((S)-octahydropyrazino[2,1-c][1,4]oxazine-8-carbonyl)-3,4,12′,13′,16′,16a′,17′,18′,18a′,19′-decahydro-1′H,2H,3′H,11′H-spiro[naphthalene-1,2′-[5,7]etheno[13,15]methanocyclobuta[i][1,4]oxazepino[3,4-f][1]thia[2,7]diazacyclohexadecin]-8′(9′H)-one 10′,10′-dioxide]	13	325	200
C[C@@H]1[C@@H](C)S(=O)(=O)NC(=O)c2ccc3c(c2)N(C[C@@H]2CC[C@H]2[C@](O)(CN2CCN4CCOC[C@@H]4C2)C2=C[C@H]1C2)C[C@@]1(CCCc2c1ccc(Cl)c2F)CO3 [compound 47, (1S,11′R,12′S,13′R,16′R,16a′R,18a′R,E)-6-chloro-5-fluoro-16′-(((S)-hexahydropyrazino[2,1-c][1,4]oxazin-8(1H)-yl)methyl)-16′-hydroxy-11′,12′-dimethyl-3,4,12,′13′,16′,16a′,17′,18′,18a′,19′-decahydro-1′H,2H,3′H,11′H-spiro[naphthalene-1,2′-[5,7]etheno[13,15]methanocyclobuta[i][1,4]oxazepino[3,4-f][1]thia[2,7]diazacyclohexadecin]-8′(9′H)-one 10′,10′-dioxide]	13	32	5.8
C[C@@H]1[C@@H](C)S(=O)(=O)NC(=O)c2ccc3c(c2)N(C[C@@H]2CC[C@H]2[C@](O)(CN2CCN4CCOC[C@H]4C2)C2=C[C@H]1C2)C[C@@]1(CCCc2c1ccc(Cl)c2F)CO3 [compound 48, (1S,11′R,12′S,13′R,16′R,16a′R,18a′R,E)-6-chloro-5-fluoro-16′-(((R)-hexahydropyrazino[2,1-c][1,4]oxazin-8(1H)-yl)methyl)-16′-hydroxy-11′,12′-dimethyl-3,4,12,′13′,16′,16a′,17′,18′,18a′,19′-decahydro-1′H,2H,3′H,11′H-spiro[naphthalene-1,2′-[5,7]etheno[13,15]methanocyclobuta[i][1,4]oxazepino[3,4-f][1]thia[2,7]diazacyclohexadecin]-8′(9′H)-one 10′,10′-dioxide]	18	69	28
CO[C@@]1(CN2CCN(C(C)=O)CC2)C2=C[C@@H](C2)[C@H](C)[C@@H](C)S(=O)(=O)NC(=O)c2ccc3c(c2)N(C[C@@H]2CC[C@H]21)C[C@@]1(CCCc2c1ccc(Cl)c2F)CO3 [compound 49]	11	186	12
CO[C@@]1(CN2CCN(C3COC3)CC2)C2=C[C@@H](C2)[C@H](C)[C@@H](C)S(=O)(=O)NC(=O)c2ccc3c(c2)N(C[C@@H]2CC[C@H]21)C[C@@]1(CCCc2c1ccc(Cl)c2F)CO3 [compound 50]	11	28	11
